In patent US11040027B2, “Protein kinase inhibitors for promoting liver regeneration or reducing or preventing hepatocyte death” (HEPAREGENIX GMBH, priority 2017, dated 2021):
pIC50: −log10 of the molar value.

Experiments:
MEKK2 = biological target: T1, MEKK2 (Homo sapiens, UniProt Q9Y2U5); experiment: Radiometric protein kinase assay, MEKK2; assay type: biochemical; settings: substrate Casein, ATP 0.2 μM; read-out: MEKK2 (potency derived from IC50-values)
T1 construct: purchased ProQinase 0583-0000-1
T1 sequence (Q9Y2U5 1-619): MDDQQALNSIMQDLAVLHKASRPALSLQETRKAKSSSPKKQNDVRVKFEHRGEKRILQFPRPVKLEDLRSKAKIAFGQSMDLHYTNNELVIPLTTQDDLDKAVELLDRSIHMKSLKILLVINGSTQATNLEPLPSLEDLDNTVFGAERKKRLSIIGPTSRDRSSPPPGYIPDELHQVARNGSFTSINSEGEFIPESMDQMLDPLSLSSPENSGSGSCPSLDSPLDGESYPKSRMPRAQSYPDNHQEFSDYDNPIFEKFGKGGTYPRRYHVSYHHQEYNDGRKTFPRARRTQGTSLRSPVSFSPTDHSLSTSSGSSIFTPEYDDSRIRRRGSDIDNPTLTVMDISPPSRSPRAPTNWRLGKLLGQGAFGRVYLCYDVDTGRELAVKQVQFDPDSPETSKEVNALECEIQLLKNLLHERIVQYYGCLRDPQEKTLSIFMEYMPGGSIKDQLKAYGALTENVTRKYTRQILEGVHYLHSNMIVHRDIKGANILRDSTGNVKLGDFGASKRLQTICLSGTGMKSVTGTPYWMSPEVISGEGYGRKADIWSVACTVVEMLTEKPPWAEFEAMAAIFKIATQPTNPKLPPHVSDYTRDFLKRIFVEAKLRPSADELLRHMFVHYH
Description: (§1) A radiometric protein kinase assay was used for measuring the kinase activity of the respective protein kinases. All kinase assays were performed in 96-well polypropylene plates. After the reactions were stopped, the assay mixtures were transferred to 96-well MSFC filter-plates (Millipore). The reaction mix was passed through the filter membrane by aspiration, the membrane was washed 3 times with 150 mM H3PO4, once with ethanol, dried and liquid scintillation cocktail was added. Radioactivity was determined by counting of the samples in a Microbeta multiwell scintillation counter (Wallac).
(§2) b) Single Kinases • 20 μl standard assay buffer • 5 μl compound in 10% DMSO • 20 μl enzyme-substrate mix • 10 μl of substrate solution
(§3) The reaction cocktails were incubated at 30° C. for 30 minutes.

MKK4 active = biological target: T2, MKK4 active (Homo sapiens, UniProt P45985); experiment: Radiometric protein kinase assay, MKK4 active; assay type: biochemical; settings: substrate JNK1 KRKR, ATP 0.2 μM, read-out: MKK4 (potency derived from IC50-values)
T2 construct: purchased ProQinase 0948-0000-1
T2 sequence (P45985 1-399): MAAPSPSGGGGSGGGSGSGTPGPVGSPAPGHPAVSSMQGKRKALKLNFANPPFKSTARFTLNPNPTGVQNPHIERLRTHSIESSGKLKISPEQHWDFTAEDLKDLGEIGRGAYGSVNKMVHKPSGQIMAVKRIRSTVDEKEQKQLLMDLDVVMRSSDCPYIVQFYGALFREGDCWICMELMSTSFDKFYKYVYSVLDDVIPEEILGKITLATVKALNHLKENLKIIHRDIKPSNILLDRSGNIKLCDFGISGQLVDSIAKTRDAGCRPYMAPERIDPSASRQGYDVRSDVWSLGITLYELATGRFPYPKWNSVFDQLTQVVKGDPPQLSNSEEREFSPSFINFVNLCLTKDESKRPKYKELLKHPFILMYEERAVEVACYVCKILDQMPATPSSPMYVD
Description: as §1, §2, §3

MKK4 = biological target: T3, MKK4 (Homo sapiens, UniProt P45985); experiment: KINOMEscan competition binding assay, MKK4; settings: read-out: Potency MKK4 (derived from % of control values, PoC)
T3 sequence (P45985 84-399): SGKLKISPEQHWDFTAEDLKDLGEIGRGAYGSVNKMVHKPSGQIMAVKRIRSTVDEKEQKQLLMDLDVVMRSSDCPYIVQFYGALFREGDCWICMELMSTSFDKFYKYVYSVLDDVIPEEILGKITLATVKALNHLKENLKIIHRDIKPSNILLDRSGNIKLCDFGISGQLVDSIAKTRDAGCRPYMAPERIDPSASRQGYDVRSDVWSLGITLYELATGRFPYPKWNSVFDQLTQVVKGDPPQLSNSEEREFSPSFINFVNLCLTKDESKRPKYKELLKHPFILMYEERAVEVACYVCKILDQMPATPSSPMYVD

MKK7 = biological target: T4, MKK7 (Homo sapiens, UniProt O14733); experiment: KINOMEscan competition binding assay, selectivity MKK7 versus MKK4; settings: Test conc. 0.1 μM; ratio of percent of control; N/E* per footnote
T4 sequence (O14733 1-419): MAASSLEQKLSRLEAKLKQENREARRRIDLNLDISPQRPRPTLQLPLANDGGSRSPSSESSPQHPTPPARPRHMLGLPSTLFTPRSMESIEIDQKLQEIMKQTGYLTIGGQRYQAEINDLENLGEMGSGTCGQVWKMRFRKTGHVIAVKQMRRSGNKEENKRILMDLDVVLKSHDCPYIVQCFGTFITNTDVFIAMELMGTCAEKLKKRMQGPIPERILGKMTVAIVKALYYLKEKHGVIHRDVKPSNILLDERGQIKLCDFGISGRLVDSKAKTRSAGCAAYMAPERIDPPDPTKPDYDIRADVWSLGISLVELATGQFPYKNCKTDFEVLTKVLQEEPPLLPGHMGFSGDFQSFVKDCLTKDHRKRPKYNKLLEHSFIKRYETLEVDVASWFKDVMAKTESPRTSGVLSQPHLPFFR

JNK1 = JNK1 (Homo sapiens, UniProt P45983); experiment: KINOMEscan competition binding assay, selectivity JNK1 versus MKK4; settings: Test conc 0.1 μM; ratio of percent of control; N/E* = PoC for JNK1 = 100
Sequence of JNK1 (P45983 1-384 isoform P45983-2): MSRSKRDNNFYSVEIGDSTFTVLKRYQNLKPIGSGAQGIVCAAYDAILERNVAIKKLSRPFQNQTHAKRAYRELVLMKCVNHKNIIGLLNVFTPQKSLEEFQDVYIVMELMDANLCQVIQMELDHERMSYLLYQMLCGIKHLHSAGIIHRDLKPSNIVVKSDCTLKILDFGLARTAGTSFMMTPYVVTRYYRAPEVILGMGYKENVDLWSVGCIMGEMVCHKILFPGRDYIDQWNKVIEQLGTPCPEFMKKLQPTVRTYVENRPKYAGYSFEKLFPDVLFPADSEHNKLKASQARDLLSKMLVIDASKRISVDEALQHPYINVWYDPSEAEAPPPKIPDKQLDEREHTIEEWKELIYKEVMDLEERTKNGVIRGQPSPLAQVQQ

BRaf = BRaf (Homo sapiens, UniProt P15056); experiment: KINOMEscan competition binding assay, selectivity BRaf versus MKK4; settings: Test conc. 0.1 μM; ratio of percent of control; N/E* per footnote
Sequence of BRaf (P15056 whole entry): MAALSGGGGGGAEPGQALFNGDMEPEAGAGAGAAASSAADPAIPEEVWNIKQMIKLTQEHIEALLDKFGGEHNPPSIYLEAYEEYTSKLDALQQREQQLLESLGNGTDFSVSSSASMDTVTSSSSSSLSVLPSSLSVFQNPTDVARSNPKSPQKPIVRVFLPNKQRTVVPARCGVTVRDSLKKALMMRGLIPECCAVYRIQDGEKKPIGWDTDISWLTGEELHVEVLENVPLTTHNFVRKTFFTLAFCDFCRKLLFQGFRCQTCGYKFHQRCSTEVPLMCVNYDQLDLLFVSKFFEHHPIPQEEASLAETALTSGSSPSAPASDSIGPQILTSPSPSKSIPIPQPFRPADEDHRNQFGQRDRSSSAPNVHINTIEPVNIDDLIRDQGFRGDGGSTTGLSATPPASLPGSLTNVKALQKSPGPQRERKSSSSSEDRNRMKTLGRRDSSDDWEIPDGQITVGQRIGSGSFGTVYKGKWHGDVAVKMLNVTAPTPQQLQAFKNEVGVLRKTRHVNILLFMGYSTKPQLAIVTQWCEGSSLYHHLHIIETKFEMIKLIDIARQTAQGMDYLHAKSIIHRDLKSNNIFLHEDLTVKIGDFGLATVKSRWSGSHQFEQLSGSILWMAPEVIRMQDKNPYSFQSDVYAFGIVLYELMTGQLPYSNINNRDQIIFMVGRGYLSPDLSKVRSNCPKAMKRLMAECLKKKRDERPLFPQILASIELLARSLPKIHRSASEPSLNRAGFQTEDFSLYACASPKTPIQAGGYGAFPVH
Description: The assay was performed by combining three components: DNA-tagged kinase; immobilized ligand; and a test compound. The ability of the test compound to compete with the immobilized ligand was measured via quantitative PCR of the DNA tag. The technology is described in detail in Fabian, M. A. et al. A small molecule-kinase interaction map for clinical kinase inhibitors. Nat. […] Nat.
The test compounds were provided as 10 mM stock solutions. The test solutions at indicated final concentrations were prepared at DiscoverX.

## CCCS(=O)(=O)Nc1ccc(F)c(C(=O)c2c[nH]c3ncc(-c4cccc(N)c4)cc23)c1F [Example 19, N-(3-(5-(3-Aminophenyl)-1H-pyrrolo[2,3-b]pyridine-3-carbonyl)-2,4-difluorophenyl)propane-1-sulfonamide]
MEKK2
  pIC50: 5.00 to 6.00

## COCCS(=O)(=O)Nc1ccc(F)c(C(=O)c2c[nH]c3ncc(-c4ccc(Cl)cc4)cc23)c1F [Example 32, N-(3-(5-(4-Chlorophenyl)-1H-pyrrolo[2,3-b]pyridine-3-carbonyl)-2,4-difluorophenyl)-2-methoxyethane-1-sulfonamide]
MEKK2
  pIC50: < 5.00

## CCCS(=O)(=O)Nc1ccc(F)c(C(=O)c2c[nH]c3ncc(-c4ccc(OC)cc4Cl)cc23)c1F [Example 39, N-(3-(5-(2-Chloro-4-methoxyphenyl)-1H-pyrrolo[2,3-b]pyridine-3-carbonyl)-2,4-difluorophenyl)propane-1-sulfonamide]
MEKK2
  pIC50: 5.00 to 6.00

## CCCS(=O)(=O)Nc1ccc(F)c(C(=O)c2c[nH]c3ncc(-c4ccc(Cl)cc4)cc23)c1Cl [Example 86, N-(2-chloro-3-(5-(4-chlorophenyl)-1H-pyrrolo[2,3-b]pyridine-3-carbonyl)-4-fluorophenyl)propane-1-sulfonamide]
MEKK2
  pIC50: < 5.00
MKK4 active
  pIC50: 5.00 to 6.00

## CCCOc1ccc(-c2cnc3[nH]cc(C(=O)c4c(F)ccc(NS(=O)(=O)CCC)c4F)c3c2)c(Cl)c1 [Example 97, N-(3-(5-(2-chloro-4-propoxy-phenyl)-1H-pyrrolo[2,3-b]pyridine-3-carbonyl)-2,4-difluorophenyl)-propane-1-sulfonamide]
MKK4
  remaining binding at 0.1 µM: 10 to 30%
MKK7
  Selectivity MKK7/MKK4: N/E* (PoC for JNK1 = 100)
JNK1
  Selectivity JNK1/MKK4: 8.6
BRaf
  Selectivity BRaf/MKK4: 6.5

## CCCS(=O)(=O)Nc1ccc(F)c(C(=O)c2c[nH]c3ncc(-c4ccc(OCCOC)cc4Cl)cc23)c1F [Example 98, N-(3-(5-(2-chloro-4-(2-methoxy-ethoxy)phenyl)-1H-pyrrolo[2,3-b]pyridine-3-carbonyl)-2,4-difluorophenyl)propane-1-sulfonamide]
MKK4
  remaining binding at 0.1 µM: < 10%
MKK7
  Selectivity MKK7/MKK4: 20
JNK1
  Selectivity JNK1/MKK4: 16
BRaf
  Selectivity BRaf/MKK4: 8.4

## CCCS(=O)(=O)Nc1ccc(F)c(C(=O)c2c[nH]c3ncc(-c4ccc(OC5CCCC5)cc4Cl)cc23)c1F [Example 99, N-(3-(5-(2-chloro-4-(cyclopentyl-oxy)phenyl)-1H-pyrrolo[2,3-b]pyridine-3-carbonyl)-2,4-difluorophenyl)propane-1-sulfonamide]
MKK4
  remaining binding at 0.1 µM: > 30%
MKK7
  Selectivity MKK7/MKK4: 2.0
JNK1
  Selectivity JNK1/MKK4: 2.0
BRaf
  Selectivity BRaf/MKK4: 1.9

## CCCS(=O)(=O)Nc1ccc(F)c(C(=O)c2c[nH]c3ncc(-c4ccc(OCC5CC5)cc4Cl)cc23)c1F [Example 100, N-(3-(5-(2-chloro-4-(cyclopropyl-methoxy)phenyl)-1H-pyrrolo[2,3-b]pyridine-3-carbonyl)-2,4-difluorophenyl)propane-1-sulfonamide]
MKK4
  remaining binding at 0.1 µM: > 30%
MKK7
  Selectivity MKK7/MKK4: N/E* (PoC for JNK1 = 100)
JNK1
  Selectivity JNK1/MKK4: 2.2
BRaf
  Selectivity BRaf/MKK4: 17

## CCCS(=O)(=O)Nc1ccc(F)c(C(=O)c2c[nH]c3ncc(-c4ccccc4)cc23)c1F [Example 101, N-(2,4-difluoro-3-(5-phenyl-1H-pyrrolo[2,3-b]pyridine-3-carbonyl)phenyl)propane-1-sulfonamide]
MKK4
  remaining binding at 0.1 µM: < 10%
MKK7
  Selectivity MKK7/MKK4: N/E* (PoC for JNK1 = 100)
JNK1
  Selectivity JNK1/MKK4: 28
BRaf
  Selectivity BRaf/MKK4: 7.2

## CCCS(=O)(=O)Nc1ccc(F)c(C(=O)c2c[nH]c3ncc(-c4ccc(OCOC)cc4Cl)cc23)c1F [Example 102, N-(3-(5-(2-chloro-4-(methoxymethoxy)phenyl)-1H-pyrrolo[2,3-b]pyridine-3-carbonyl)-2,4-difluorophenyl)propane-1-sulfonamide]
MKK4
  remaining binding at 0.1 µM: < 10%
MKK7
  Selectivity MKK7/MKK4: N/E* (PoC for JNK1 = 100)
JNK1
  Selectivity JNK1/MKK4: N/E* (PoC for JNK1 = 100)
BRaf
  Selectivity BRaf/MKK4: 17

## O=C(c1c(F)ccc(NS(=O)(=O)CCc2ccccc2)c1F)c1c[nH]c2ncc(-c3ccc(Cl)cc3)cc12 [Example 103, N-(3-(5-(4-chlorophenyl)-1H-pyrrolo[2,3-b]pyridine-3-carbonyl)-2,4-difluorophenyl)-2-phenylethane-1-sulfonamide]
MEKK2
  pIC50: > 6.30

## CCCS(=O)(=O)Nc1ccc(F)c(C2(c3c[nH]c4ncc(-c5ccc(Cl)cc5)cc34)OCCO2)c1F [Example 104, N-(3-(2-(5-(4-chlorophenyl)-1H-pyrrolo[2,3-b]pyridin-3-yl)-1,3-dioxolan-2-yl)-2,4-difluorophenyl)propane-1-sulfonamide]
MEKK2
  pIC50: < 5.00

## CCCS(=O)(=O)Nc1nc(C(=O)c2c[nH]c3ncc(-c4ccc(Cl)cc4)cc23)cs1 [Example 111, N-(4-(5-(4-chlorophenyl)-1H-pyrrolo[2,3-b]pyridine-3-carbonyl)thiazol-2-yl)propane-1-sulfonamide]
MKK4
  remaining binding at 1 µM: > 30%
MKK7
  Selectivity MKK7/MKK4: <1
JNK1
  Selectivity JNK1/MKK4: N/E* (PoC for JNK1 = 100)
BRaf
  Selectivity BRaf/MKK4: N/E* (PoC for JNK1 = 100)

## CCCS(=N)(=O)Nc1ccc(F)c(C(=O)c2c[nH]c3ncc(-c4ccc(Cl)cc4)cc23)c1F (stereo not shown) [Example 112, N-(3-(5-(4-chlorophenyl)-1H-pyrrolo[2,3-b]pyridine-3-carbonyl)-2,4-difluorophenyl)propane-1-sulfonimidamide]
MEKK2
  pIC50: < 5.00
MKK4 active
  pIC50: 5.00 to 6.00
